Test results as given in patent EP3687536B1, “METHODS OF TREATING HEMOCHROMATOSIS AND RESPIRATORY DISORDERS” (MYMD PHARMACEUTICALS, INC., priority 2017, dated 2019).
Entries after “also recorded” stand apart in the source; their conditions may differ.

Columns and labels:
MAO-A = molecular target: T1, MAO-A (Homo sapiens, UniProt P21397); assay: MAO-Glo luminescent assay, MAO-A inhibition; assay type: biochemical; settings: for inhibiting the enzymatic activity of MAO-A (result in words): compared among isomyosmine, myosmine, anatabine, anabasine, nornicotine, clorgyline positive control, FIG. 3
T1 construct: purchased
T1 sequence (P21397 1-527): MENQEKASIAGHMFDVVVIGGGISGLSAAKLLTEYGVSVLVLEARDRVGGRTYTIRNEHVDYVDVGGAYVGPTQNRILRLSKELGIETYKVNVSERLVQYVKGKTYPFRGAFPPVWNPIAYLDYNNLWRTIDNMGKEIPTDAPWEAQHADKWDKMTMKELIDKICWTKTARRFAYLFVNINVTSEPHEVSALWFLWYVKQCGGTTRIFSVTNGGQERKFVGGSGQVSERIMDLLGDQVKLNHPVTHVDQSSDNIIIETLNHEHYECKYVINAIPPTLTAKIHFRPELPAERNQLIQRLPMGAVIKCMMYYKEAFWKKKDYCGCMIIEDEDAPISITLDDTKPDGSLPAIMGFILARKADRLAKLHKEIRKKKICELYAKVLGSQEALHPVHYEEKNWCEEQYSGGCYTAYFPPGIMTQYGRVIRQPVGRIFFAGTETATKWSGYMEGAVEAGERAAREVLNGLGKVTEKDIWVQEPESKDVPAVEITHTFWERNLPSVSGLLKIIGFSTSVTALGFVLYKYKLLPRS
Source text: (§1) This example describes experiments for determining monoamine oxidase (MAO) inhibition for isomyosmine and other alkaloids. MAOs are enzymes located on the outer membrane of mitochondria and are involved in the catabolism of monoamine neurotransmitters. There are two well-characterized isoenzymes: MAO-A, which predominantly catabolizes serotonin and norepinephrine, and MAO-B, which preferentially catabolizes benzylamine and phenylethylamine. Dopamine and tyramine are metabolized by both isoforms.
(§2) To detect the activity of MAO, a luminescent method (MAO-Glo Assay kit, from Promega, Cat # V1401) was used. In this method, a MAO substrate (a derivative of beetle luciferin provided in the kit) is mixed with the compound to be tested (in this case, myosmine and control compounds). Then, the MAO enzymes (either A or B, purchased separately) are added to the mixture and incubated with the reaction for 1 hour at room temperature. The MAO enzymes, if not inhibited by the test compound, will convert the substrate into methyl ester luciferin. Finally, a luciferin detection reagent (provided by the kit) is added (20 minutes at room temperature) to stop the MAO reaction and convert methyl ester luciferin into D-luciferin. D-luciferin reacts with luciferase to produce a luminescent signal, which is directly proportional to the D-luciferin concentration and thus the MAO activity: the greater the amount of light produced the higher the activity of MAO. The luminescent signal is measured and recorded using a luminometer.
The following materials were obtained from Toronto Research Chemicals, North York, ON: isomyosmine, catalog # 1821350; myosmine, catalog # M835000; anabasine, catalog # A637175; and nornicotine, catalog # N756995. Anatabine was obtained from Emerson Resources, Norristown, PA.

MAO-B = molecular target: T2, MAO-B (Homo sapiens, UniProt P27338); assay: MAO-Glo luminescent assay, MAO-B inhibition; assay type: biochemical; settings: compared among isomyosmine, myosmine, anatabine, anabasine, nornicotine; FIG. 4
T2 construct: purchased
T2 sequence (P27338 1-520): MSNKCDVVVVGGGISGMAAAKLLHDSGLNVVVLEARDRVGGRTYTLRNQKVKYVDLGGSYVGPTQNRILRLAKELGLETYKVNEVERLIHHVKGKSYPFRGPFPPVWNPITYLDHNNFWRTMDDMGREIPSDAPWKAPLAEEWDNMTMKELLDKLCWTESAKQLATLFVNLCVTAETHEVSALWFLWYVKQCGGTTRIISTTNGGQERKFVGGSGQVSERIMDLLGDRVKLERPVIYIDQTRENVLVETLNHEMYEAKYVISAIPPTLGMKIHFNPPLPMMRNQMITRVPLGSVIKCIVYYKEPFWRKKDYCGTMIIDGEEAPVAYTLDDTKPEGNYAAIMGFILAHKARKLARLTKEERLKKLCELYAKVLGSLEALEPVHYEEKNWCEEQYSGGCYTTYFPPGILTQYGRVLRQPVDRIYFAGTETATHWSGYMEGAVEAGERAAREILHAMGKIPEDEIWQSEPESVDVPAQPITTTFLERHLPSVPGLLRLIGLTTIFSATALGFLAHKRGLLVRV
Source text: as §1
as §2, with “D-luciferin reacts with luciferase to produce a luminescent signal, which is directly proportional to the D-luciferin concentration and thus the MAO activity: the greater the amount of light produced the higher the activity of MAO.” left out, “luminometer. […]” for “luminometer.”

[1] = Blood oxygen saturation (SpO2) by pulse oximetry in individuals; assay type: in vivo, human; settings: seven individuals, one hour after single dose 50-100 mg
Source text: This example illustrates the effect of isomyosmine on normal blood oxygen saturation levels (SpO2). SpO2 refers to peripheral capillary oxygen saturation, an estimate of the amount of oxygen in the blood. More specifically, it is the percentage of oxygenated hemoglobin (hemoglobin containing oxygen) compared to the total amount of hemoglobin in the blood (oxygenated and non-oxygenated hemoglobin). SpO2 can be measured by pulse oximetry, an indirect, non-invasive method. It works by emitting and then absorbing a light wave passing through blood vessels (or capillaries) in the fingertip. A variation of the light wave passing through the finger will give the value of the SpO2 measurement because the degree of oxygen saturation causes variations in the blood's color.

[2] = Topical administration for wound healing; assay type: in vivo; settings: e.g. surgical incisions
Source text: A method, not falling within the scope of the claimed subject-matter, of treating a wound is also described herein which comprises administering to an individual in need thereof a pharmaceutical composition containing a therapeutically effective amount of isomyosmine or a pharmaceutically acceptable salt thereof.

| Structure (SMILES) | inhibiting the enzymatic activity of MAO-A (result in words) (MAO-A) | inhibiting the enzymatic activity of MAO-A (result in words) (MAO-A; listed as Isomyosmine) | inhibition at 2000 µM (MAO-A; read-out: inhibition of MAO-A) [%] | inhibiting the activity of MAO-B (result in words) (MAO-B) | blood oxygenation (result in words) [1] | wound healing (result in words) [2] |
| --- | --- | --- | --- | --- | --- | --- |
| C#CCN(C)CCCOc1ccc(Cl)cc1Cl [clorgyline, reference compound] | greatly shifted leftward | – | – | – | – | – |
| C1=NC(c2cccnc2)CC1 (stereo not shown) [isomyosmine, 3-(3,4-dihydro-2H-pyrrol-2-yl)-pyridine] | most potent of the five | potent inhibitor | ~50 | most potent among the five alkaloids tested; also recorded: potent inhibitor | significant increase in blood oxygenation | dramatically improve healing |
